Experimental data as given in ChEMBL document CHEMBL1201862, “PubChem BioAssay data set” (2004).
Calls of active or inactive are those of the source.

How the values were obtained:
[1] = target: T1, Low molecular weight phosphotyrosine protein phosphatase (Homo sapiens, UniProt P24666); type: functional; conditions: read-out: IC50_Mean;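 note: Dose-response confirmation assay measuring inhibition of LMPTP enzyme activity by fluorescence intensity read-out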
T1 sequence (P24666 whole entry): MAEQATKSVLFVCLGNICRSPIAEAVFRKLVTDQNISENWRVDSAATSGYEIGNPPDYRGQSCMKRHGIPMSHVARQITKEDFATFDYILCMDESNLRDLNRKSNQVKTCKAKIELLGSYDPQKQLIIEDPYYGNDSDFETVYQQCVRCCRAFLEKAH

[2] = target: Eukaryotic translation initiation factor 4E (Mus musculus, UniProt P63073); test: eIF4E–eIF4G protein interaction inhibitors, dose response, biochemical, TR-FRET (AID 855); type: functional;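 note: potency for disrupting eIF4E binding to eIF4GI seen as loss of FRET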
[3] = target: T2, Mannose-6-phosphate isomerase (Homo sapiens, UniProt P34949); test: human PMI inhibitors, high substrate, primary screen, biochemical, fluorescence intensity, high mannose 6-phosphate (AID 1220)
T2 sequence (P34949 whole entry): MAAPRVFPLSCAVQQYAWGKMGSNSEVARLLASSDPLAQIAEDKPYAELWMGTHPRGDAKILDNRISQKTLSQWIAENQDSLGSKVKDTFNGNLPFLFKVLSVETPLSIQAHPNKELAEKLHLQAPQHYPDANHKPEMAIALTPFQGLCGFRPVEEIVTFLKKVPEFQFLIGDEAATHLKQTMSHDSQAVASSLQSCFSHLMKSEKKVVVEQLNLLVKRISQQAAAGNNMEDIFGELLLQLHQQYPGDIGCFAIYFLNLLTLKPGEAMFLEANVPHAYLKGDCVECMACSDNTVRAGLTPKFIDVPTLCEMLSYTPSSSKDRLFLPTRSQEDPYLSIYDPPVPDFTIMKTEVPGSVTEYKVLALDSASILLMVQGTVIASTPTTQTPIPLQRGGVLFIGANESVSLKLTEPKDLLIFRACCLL

[4] = target: T3, Heat shock factor protein 1 (Mus musculus, UniProt P38532); test: HSF1 potentiators in luciferase reporter cells, confirmation, cell-based, NIH3T3, luminescence, dose retest (AID 435004); type: functional;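 note: stress induced by proteasome inhibitor MG132 added 30 min after compound; luciferase reporter driven by HSF1 response element in NIH3T3 cells; actives raise luminescence as potentiators of the MG132 stress response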
T3 sequence (P38532 whole entry): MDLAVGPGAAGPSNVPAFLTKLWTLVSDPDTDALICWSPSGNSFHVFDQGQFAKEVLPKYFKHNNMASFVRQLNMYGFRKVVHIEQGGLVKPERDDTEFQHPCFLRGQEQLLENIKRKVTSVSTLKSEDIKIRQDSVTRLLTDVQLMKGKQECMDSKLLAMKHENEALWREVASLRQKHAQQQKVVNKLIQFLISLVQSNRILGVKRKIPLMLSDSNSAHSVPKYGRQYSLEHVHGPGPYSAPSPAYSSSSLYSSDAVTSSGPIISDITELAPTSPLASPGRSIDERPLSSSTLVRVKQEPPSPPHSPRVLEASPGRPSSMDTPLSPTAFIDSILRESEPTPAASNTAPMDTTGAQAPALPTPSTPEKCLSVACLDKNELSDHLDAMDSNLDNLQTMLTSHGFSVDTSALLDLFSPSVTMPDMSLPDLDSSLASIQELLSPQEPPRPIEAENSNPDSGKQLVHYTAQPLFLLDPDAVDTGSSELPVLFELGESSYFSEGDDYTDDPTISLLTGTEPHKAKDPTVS

[5] = A549 cell cytotoxicity, dose response, cytotoxicity control, plate reader, cherry-pick, antagonist series (AID 743412); type: functional, cell-based
[6] = LGR2 antagonists, dose response, cell-based, HEK293, CRE-luciferase reporter, cherry pick, set 2 (AID 743343); type: functional;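 note: transfected cells were stimulated with diluted bursicon conditioned medium after compound addition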
[7] = MC4R antagonists, dose response, counter-screen for LGR2 antagonist project, cell-based, plate reader, cherry pick (AID 743444); type: functional;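 note: transfected HEK 293 cells stimulated with alpha-MSH peptide; potency of inhibitors of the alpha-MSH evoked signal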
Genome polyprotein = Genome polyprotein (dengue virus type 2, UniProt P29990); test: Dengue-2 NS5 methyltransferase inhibitors, primary screen, biochemical, confirmation dose response (AID 588689); type: functional
Large T antigen = Large T antigen (Simian virus 40, UniProt P03070); type: functional, Betapolyomavirus macacae;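 note: Confirmatory-stage PubChem screen for compounds that inhibit SV40 T antigen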
Aminopeptidase N = target: T4, Aminopeptidase N (Plasmodium falciparum FcB1/Columbia, UniProt O96935); test: P. falciparum M1AAP inhibitors, biochemical, fluorogenic H-Leu-NHMec substrate, 1536-well (AID 1445); design: species or system Plasmodium falciparum 3D7, 3D7
T4 sequence (O96935 whole entry): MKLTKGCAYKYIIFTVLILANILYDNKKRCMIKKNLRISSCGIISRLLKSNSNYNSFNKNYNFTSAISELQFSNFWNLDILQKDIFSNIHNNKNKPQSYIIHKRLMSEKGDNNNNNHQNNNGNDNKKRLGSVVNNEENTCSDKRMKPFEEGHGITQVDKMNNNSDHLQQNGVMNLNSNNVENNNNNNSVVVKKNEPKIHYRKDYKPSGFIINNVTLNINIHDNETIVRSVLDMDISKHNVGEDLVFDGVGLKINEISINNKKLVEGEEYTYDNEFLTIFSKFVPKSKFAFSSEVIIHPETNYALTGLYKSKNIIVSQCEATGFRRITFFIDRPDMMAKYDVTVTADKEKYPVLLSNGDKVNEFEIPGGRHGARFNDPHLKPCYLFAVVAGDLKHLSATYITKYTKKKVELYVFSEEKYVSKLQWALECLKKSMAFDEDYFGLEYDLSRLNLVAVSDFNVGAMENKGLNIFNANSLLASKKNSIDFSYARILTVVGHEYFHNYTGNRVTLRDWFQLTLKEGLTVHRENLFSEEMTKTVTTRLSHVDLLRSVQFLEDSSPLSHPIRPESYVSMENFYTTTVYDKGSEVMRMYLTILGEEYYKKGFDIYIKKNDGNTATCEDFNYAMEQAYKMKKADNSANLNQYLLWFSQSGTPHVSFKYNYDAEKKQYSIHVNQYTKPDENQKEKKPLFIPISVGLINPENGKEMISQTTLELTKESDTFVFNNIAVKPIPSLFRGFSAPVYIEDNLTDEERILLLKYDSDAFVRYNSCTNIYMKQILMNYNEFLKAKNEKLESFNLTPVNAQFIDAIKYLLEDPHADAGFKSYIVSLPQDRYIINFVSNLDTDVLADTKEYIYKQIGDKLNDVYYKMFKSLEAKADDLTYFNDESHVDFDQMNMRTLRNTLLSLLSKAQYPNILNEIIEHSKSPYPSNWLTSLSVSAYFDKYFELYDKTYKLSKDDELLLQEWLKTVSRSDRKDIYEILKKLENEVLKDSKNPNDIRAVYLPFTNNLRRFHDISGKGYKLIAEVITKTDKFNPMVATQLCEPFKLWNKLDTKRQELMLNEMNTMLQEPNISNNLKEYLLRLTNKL

[8] = target: T5, Rac GTPase-activating protein 1 (Homo sapiens, UniProt Q9H0H5); test: MgcRacGAP GTPase-activating activity inhibitors, confirmation, biochemical, ADP Hunter fluorescence, primary and confirmatory (AID 624330); type: functional
T5 sequence (Q9H0H5 whole entry): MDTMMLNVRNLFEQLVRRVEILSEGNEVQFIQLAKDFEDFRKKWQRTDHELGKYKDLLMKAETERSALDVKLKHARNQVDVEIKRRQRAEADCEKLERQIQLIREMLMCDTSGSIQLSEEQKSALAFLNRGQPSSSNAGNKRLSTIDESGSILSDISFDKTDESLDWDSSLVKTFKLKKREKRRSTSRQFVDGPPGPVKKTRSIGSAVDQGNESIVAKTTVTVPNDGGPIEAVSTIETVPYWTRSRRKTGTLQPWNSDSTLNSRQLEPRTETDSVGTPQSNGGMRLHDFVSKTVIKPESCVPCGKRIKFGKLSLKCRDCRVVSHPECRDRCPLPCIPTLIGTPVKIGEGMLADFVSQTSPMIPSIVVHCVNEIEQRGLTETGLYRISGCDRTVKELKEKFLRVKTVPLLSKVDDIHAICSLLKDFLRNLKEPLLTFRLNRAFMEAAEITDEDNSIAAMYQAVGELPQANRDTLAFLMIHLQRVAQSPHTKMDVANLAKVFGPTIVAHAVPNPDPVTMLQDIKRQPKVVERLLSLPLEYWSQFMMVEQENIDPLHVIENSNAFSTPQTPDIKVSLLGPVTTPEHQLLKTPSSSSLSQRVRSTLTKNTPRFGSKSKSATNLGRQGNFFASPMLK

[9] = target: T6, Replicative DNA helicase DnaB (Mycobacterium tuberculosis, UniProt P9WMR3); test: DnaB intein splicing inhibitors, dose response, biochemical, cell-free fluorescence (AID 449749); type: functional
T6 sequence (P9WMR3 whole entry): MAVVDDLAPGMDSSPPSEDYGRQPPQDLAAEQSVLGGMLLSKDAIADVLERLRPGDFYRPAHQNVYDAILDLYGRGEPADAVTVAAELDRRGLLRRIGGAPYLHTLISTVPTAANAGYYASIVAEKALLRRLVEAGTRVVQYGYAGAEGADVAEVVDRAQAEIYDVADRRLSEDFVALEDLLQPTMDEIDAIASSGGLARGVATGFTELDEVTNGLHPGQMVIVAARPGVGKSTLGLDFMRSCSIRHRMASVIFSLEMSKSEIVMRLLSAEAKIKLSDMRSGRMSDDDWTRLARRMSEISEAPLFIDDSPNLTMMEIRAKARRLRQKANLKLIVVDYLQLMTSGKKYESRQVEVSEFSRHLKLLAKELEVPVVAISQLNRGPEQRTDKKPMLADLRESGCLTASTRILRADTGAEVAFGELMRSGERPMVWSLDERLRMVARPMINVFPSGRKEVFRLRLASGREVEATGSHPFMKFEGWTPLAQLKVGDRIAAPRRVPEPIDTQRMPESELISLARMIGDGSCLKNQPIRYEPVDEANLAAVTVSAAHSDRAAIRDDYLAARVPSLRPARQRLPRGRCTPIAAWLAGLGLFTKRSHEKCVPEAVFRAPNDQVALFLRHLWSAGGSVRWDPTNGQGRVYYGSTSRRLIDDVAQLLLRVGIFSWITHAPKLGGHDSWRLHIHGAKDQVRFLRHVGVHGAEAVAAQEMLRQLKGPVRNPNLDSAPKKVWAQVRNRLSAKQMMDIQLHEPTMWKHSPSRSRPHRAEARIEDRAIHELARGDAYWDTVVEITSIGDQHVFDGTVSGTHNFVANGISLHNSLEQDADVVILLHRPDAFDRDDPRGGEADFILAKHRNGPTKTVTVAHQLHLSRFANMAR

Protein RecA = target: T7, Protein RecA (Mycobacterium tuberculosis, UniProt P9WHJ3); test: Fluorescence Cell-Free Homogeneous Dose Retest to Identify Inhibitors of RecA-Intein Splicing Activity. [Related pubchem assays (depositor defined):AID2097, AID2223, AID489010, AID492950]; type: functional
T7 sequence (P9WHJ3 whole entry): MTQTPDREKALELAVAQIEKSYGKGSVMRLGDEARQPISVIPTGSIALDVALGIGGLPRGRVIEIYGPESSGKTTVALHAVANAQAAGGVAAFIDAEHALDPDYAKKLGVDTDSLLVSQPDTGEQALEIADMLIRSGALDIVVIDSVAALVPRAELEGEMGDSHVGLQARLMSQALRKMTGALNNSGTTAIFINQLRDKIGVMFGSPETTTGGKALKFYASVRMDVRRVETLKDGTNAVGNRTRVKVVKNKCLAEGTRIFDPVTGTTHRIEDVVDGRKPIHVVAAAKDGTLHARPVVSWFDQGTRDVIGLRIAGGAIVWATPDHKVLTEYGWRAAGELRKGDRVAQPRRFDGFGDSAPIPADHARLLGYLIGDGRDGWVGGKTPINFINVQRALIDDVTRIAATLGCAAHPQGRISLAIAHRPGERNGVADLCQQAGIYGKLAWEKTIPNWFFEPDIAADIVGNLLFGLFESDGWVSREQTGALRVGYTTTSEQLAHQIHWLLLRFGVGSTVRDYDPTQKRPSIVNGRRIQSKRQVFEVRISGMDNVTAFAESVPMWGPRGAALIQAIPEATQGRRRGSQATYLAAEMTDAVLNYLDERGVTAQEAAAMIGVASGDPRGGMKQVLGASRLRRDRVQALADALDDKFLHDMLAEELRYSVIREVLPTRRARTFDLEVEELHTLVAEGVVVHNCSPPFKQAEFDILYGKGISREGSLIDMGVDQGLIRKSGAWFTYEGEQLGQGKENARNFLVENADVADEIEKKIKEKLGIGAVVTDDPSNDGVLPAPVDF

[10] = HEK293T cytotoxicity, dose response, cytotoxicity control for miR-122 modulator project, cell-based, inhibitor set, cherry-pick, set 2 (AID 720697); type: functional
[11] = Luminescence Cell-Based Dose Response HTS to Identify Inhibitors of 5'UTR Stem-Loop Driven Prion Protein mRNA Translation in H4 Neuroglioblastoma Cells. [Related pubchem assays: 1827 (Project Summary), 1813 (Primary HTS)]; type: functional
[12] = inhibitors of SNCA 5'UTR-driven reporter translation, confirmation, H4 neuroglioma cells, luminescence (AID 1988); type: functional, cell-based
[13] = inhibitors of firefly luciferase expression or activity, dose response, H4 neuroglioma cells, luminescence (AID 1990); type: functional, cell-based

Genome polyprotein, sequence (P29990 2492-3391 limits assumed): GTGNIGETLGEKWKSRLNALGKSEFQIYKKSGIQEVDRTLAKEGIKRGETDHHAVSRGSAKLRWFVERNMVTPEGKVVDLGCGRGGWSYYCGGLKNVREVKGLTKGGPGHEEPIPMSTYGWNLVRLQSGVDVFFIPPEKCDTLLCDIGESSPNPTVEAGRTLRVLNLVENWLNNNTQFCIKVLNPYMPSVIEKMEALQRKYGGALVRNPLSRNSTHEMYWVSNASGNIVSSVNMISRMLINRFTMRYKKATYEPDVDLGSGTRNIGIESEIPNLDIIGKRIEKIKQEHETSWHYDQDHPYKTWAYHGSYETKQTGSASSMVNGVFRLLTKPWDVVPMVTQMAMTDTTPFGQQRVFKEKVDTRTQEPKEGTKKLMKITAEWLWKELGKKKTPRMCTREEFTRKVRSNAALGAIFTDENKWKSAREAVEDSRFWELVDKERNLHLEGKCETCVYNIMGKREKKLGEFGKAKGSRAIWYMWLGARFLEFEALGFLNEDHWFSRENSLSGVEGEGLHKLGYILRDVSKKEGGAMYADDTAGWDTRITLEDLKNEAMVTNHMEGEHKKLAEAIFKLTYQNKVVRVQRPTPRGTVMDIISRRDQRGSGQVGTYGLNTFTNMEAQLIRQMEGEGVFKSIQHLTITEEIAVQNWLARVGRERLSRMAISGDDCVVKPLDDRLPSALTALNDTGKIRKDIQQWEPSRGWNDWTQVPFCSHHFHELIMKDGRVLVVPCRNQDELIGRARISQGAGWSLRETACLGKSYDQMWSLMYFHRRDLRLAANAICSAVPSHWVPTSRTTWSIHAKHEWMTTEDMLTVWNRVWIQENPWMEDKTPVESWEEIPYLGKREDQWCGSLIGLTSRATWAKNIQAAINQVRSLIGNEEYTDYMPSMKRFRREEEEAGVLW
Large T antigen, sequence (P03070 whole entry): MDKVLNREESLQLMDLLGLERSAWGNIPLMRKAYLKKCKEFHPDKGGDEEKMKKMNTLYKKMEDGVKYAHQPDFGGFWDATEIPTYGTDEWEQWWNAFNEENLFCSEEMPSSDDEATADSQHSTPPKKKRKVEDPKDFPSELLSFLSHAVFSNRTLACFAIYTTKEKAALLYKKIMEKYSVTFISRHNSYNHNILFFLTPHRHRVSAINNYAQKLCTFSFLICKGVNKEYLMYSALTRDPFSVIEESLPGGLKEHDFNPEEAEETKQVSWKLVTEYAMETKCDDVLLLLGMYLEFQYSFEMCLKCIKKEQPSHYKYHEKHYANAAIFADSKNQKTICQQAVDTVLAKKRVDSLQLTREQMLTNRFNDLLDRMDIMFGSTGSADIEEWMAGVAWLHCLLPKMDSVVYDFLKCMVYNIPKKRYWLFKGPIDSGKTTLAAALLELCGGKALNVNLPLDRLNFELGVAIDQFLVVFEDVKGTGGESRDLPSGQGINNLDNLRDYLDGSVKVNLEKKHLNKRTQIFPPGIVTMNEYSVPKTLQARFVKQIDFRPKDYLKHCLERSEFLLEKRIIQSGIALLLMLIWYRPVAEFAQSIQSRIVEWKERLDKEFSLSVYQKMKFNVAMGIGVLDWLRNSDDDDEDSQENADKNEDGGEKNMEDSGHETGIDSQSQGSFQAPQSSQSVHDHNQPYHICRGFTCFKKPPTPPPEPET
Eukaryotic translation initiation factor 4E, sequence (P63073 whole entry): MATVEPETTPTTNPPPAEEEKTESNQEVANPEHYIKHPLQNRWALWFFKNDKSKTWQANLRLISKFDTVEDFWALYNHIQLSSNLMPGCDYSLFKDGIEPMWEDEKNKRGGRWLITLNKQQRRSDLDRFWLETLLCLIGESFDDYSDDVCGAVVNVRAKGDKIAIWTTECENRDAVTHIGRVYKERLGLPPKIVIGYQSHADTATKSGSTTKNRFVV

## O=c1cc(CSc2nc(NCc3ccccc3)c3ccccc3n2)nc2ccc(Cl)cn12
[1]
  IC50: 26 µM (inactive)

## Nc1nc2c(s1)CCc1c-2cnn1-c1ccccc1
[2]
  IC50: > 64 µM (inactive)
[3]
  IC50: 1.42 µM (active)

## C(=C\c1nc(N2CCCC2)c2ccccc2n1)/c1ccccc1
[1]
  IC50: 8.49 µM (active)

## COc1ccc(-c2cc(C(=O)Nc3cc(Br)ccc3O)no2)cc1
[1]
  IC50: 2.09 µM (active)

## Oc1nc(CSc2ccccn2)nc2c1oc1ccccc12
[4]
  EC50: > 260 µM (inconclusive)
[5]
  AC50: > 52 µM (inactive)
[6]
  AC50: 5.23 µM (active)
[7]
  AC50: 6.77 µM (active)

## COCCn1c(C)cc(C(=O)CSc2nnnn2C2CCCC2)c1C
[6]
  AC50: 3.39 µM (active)
[7]
  AC50: 2.78 µM (active)

## CC1=NOC(=O)/C1=C\c1ccc(-c2ccc(Cl)c(C(=O)O)c2)o1
[3]
  IC50: > 50 µM (not active)
Genome polyprotein
  IC50: 15.3 µM (active)
Large T antigen
  IC50: 14.2 µM (active)
Aminopeptidase N
  IC50: 17.4 µM (active)
[8]
  IC50: 141 µM (active)

## Oc1cc(O)c2sc(Nc3ccc(F)cc3)nc2n1
[3]
  IC50: > 50 µM (not active)

## COc1ccc(N2C(=O)C(Cl)=C(N3CCOCC3)C2=O)cc1
[9]
  AC50: 10.8 µM (active)
Genome polyprotein
  IC50: 33.1 µM (active)
Protein RecA
  EC50: 3 µM (active)

## Cc1nnsc1Sc1cccc(C(F)(F)F)c1
[10]
  AC50: 8.67 µM (active)

## CCNC(=O)Nc1ccc2c(c1)C(=O)N(C)[C@@H]1CC[C@H](CC(=O)NCC3CC3)O[C@@H]1CO2
[10]
  AC50: 0.493 µM (active)

## C/C=C/c1ccc([C@H]2[C@@H](CO)N(C(=O)C3CC3)[C@H]2CNC(=O)NC(C)C)cc1
[10]
  AC50: 0.558 µM (active)

## Nc1c(C(=O)N/N=C/c2ccc(OCc3ccccc3)cc2)cnn1-c1ccccc1
[11]
  EC50: 21.9 µM (active)
[12]
  EC50: 11.9 µM (active)
[13]
  EC50: > 120 µM (not active)
[1]
  IC50: 25.9 µM (inactive)
